In ChEMBL document CHEMBL4402592, “Targeting Endoplasmic Reticulum α-Glucosidase I with a Single-Dose Iminosugar Treatment Protects against Lethal Influenza and Dengue Virus Infections” (J Med Chem, 2020):
The source made the active and inactive calls. The rule behind the calls is not given here.

Legend:
dengue virus type 2 [1] = assay: Antiviral activity against Dengue virus 2 S221 infected in DENV antibody dependent enhancement AG129 mouse model assessed as animal survival at 750 mg/kg, po administered via gavage as two doses at 16 and 32 hrs post infection (reference value: 4%); format: functional
dengue virus type 2 [2] = assay: (§1) Antiviral activity against Dengue virus 2 S221 infected in DENV antibody dependent enhancement AG129 mouse model assessed as reduction in KC-GRO level at 750 mg/kg, po administered via gavage as two doses at 36 hrs and 52 hrs post infection measured at 72 hrs post-infection by electrochemiluminescence based method; format: functional, organism-based
Influenza A virus [3] = assay: Antiviral activity against Influenza A virus (A/PA/10/2010 (H3N2)) infected in BALB/c mouse assessed as increase in animal survival rate at >250 mg/kg, po administered via gavage as single dose at 8 hrs post infection; format: functional, organism-based
dengue virus type 2 [4] = assay: as §1, with “IL-10” for “KC-GRO”, “single dose” for “two doses”, “36” for “36 hrs and 52”; format: functional, organism-based
Influenza A virus [5] = assay: Antiviral activity against Influenza A virus (A/Texas/36/1991(H1N1)) infected in BALB/c mouse assessed as median death time at 250 mg/kg, po administered via gavage as three dosed at 8, 32 and 56 hrs post infection (reference value: 8 days); format: functional
dengue virus type 2 [6] = assay: Antiviral activity against Dengue virus 2 S221 infected in DENV antibody dependent enhancement AG129 mouse model assessed as animal survival at 750 mg/kg, po administered via gavage as two doses at 8 and 24 hrs post infection (reference value: 4%); format: functional
dengue virus type 2 [7] = assay: as §1, with “IL-12/IL-23p40” for “KC-GRO”, “single dose” for “two doses”, “36” for “36 hrs and 52”, “60” for “72”; format: functional, organism-based
dengue virus type 2 [8] = assay: as §1, with “TNF-alpha” for “KC-GRO”; format: functional, organism-based
Mus musculus [9] = assay: In vivo inhibition of ERGlu1 in BALB/c mouse assessed as increase in tri-glucosylated FOS level in lung at >250 mg/kg, po administered via gavage as single dose at 8 hrs post-infection and measured at 8 hrs post dose by NP-HPLC analysis; format: functional, organism-based
dengue virus type 2 [10] = assay: Antiviral activity against Dengue virus 2 S221 infected in DENV antibody dependent enhancement AG129 mouse model assessed as animal survival at 500 mg/kg, po administered via gavage as two doses at 36 and 52 hrs post infection (reference value: 4%); format: functional
dengue virus type 2 [11] = assay: Antiviral activity against Dengue virus 2 S221 infected in DENV antibody dependent enhancement AG129 mouse model assessed as animal survival at 750 mg/kg, po administered via gavage as two doses at 36 and 52 hrs post infection (reference value: 4%); format: functional
Influenza A virus [12] = assay: Antiviral activity against Influenza A virus (A/Texas/36/1991(H1N1)) infected in BALB/c mouse assessed as animal survival at 250 mg/kg, po administered via gavage as single dose at 8 hrs post infection (reference value: 0%); format: functional
Influenza A virus [13] = assay: Antiviral activity against Influenza A virus (A/Texas/36/1991(H1N1)) infected in BALB/c mouse assessed as animal survival at 750 mg/kg, po administered via gavage as three doses at 8, 32 and 56 hrs post infection (reference value: 0%); format: functional
Mus musculus [14] = assay: In vivo inhibition of ERGlu1 in BALB/c mouse assessed as increase in tri-glucosylated FOS level in spleen at 750 mg/kg, po administered via gavage as single dose and measured after 16 hrs by NP-HPLC analysis; format: functional, organism-based
dengue virus type 2 [15] = assay: Antiviral activity against Dengue virus 2 S221 infected in DENV antibody dependent enhancement AG129 mouse model assessed as animal survival at 375 mg/kg, po administered via gavage as two doses at 8 and 24 hrs post infection (reference value: 4%); format: functional
Influenza A virus [16] = assay: Antiviral activity against Influenza A virus (A/Texas/36/1991(H1N1)) infected in BALB/c mouse assessed as increase in animal survival rate at 100 mg/kg, po administered via gavage starting at 8 hrs post-infection and continuing TID for 5 days; format: functional, organism-based
dengue virus type 2 [17] = assay: as §1, with “IFN-gamma” for “KC-GRO”; format: functional, organism-based
Influenza A virus [18] = assay: Antiviral activity against Influenza A virus (A/Texas/36/1991(H1N1)) infected in BALB/c mouse assessed as median death time at 500 mg/kg, po administered via gavage as two doses at 8 hrs and 32 hrs post infection (reference value: 9 days); format: functional
Influenza A virus [19] = assay: Antiviral activity against Influenza A virus (A/Texas/36/1991(H1N1)) infected in BALB/c mouse assessed as median death time at 100 mg/kg, po administered via gavage starting at 8 hrs post-infection and continuing TID for 5 days; format: functional
[20] = Half life in BALB/c mouse at 5 mg/kg, iv or 200 mg/kg, po measured upto 48 hrs by LC-MS/MS analysis; format: ADME, organism-based; conditions: in vivo
dengue virus type 2 [21] = assay: Antiviral activity against Dengue virus 2 S221 infected in DENV antibody dependent enhancement AG129 mouse model assessed as animal survival at 375 mg/kg, po administered via gavage as two doses at 16 and 32 hrs post infection (reference value: 4%); format: functional
Influenza A virus [22] = assay: Antiviral activity against Influenza A virus (A/Texas/36/1991(H1N1)) infected in BALB/c mouse assessed as animal survival at 500 mg/kg, po administered via gavage as single dose at 16 hrs post infection (reference value: 0%); format: functional
Mus musculus [23] = assay: In vivo inhibition of ERGlu2 in BALB/c mouse assessed as increase in mono-glucosylated FOS level in serum at 20 mg/kg, po administered via gavage starting at 8 hrs post-infection and continuing tid for 5 days and measured at 8 hrs post-final dose by NP-HPLC analysis; format: functional, organism-based
dengue virus type 2 [24] = assay: as §1, with “IL10” for “KC-GRO”, “single dose” for “two doses”, “36” for “36 hrs and 52”, “60” for “72”; format: functional, organism-based
dengue virus type 2 [25] = assay: as §1, with “IFN-gamma” for “KC-GRO”, “single dose” for “two doses”, “36” for “36 hrs and 52”, “60” for “72”; format: functional, organism-based
Cynomolgus monkey = assay: In vivo inhibition of ERGlu2 in cynomolgus monkey serum assessed as increase in mono-glucosylated FOS level in serum at 26 to 258 mg/kg, po administered via gavage as single dose and measured up to 72 hrs post-dose by NP-HPLC analysis; format: functional, organism-based; conditions: Macaca fascicularis
Influenza A virus [26] = assay: Antiviral activity against Influenza A virus (A/Texas/36/1991(H1N1)) infected in BALB/c mouse assessed as animal survival at 250 mg/kg, po administered via gavage as three doses at 8, 32 and 56 hrs post infection (reference value: 0%); format: functional
Influenza A virus [27] = assay: Antiviral activity against Influenza A virus (A/Texas/36/1991(H1N1)) infected in BALB/c mouse assessed as animal survival at 750 mg/kg, po administered via gavage as single dose at 24 hrs post infection (reference value: 0%); format: functional

COCCCCCCCCCN1C[C@H](O)[C@@H](O)[C@H](O)[C@H]1CO.Cl
survival at 750 mg/kg (dengue virus type 2 [1]): 100%
Activity (dengue virus type 2 [2]): Active
Activity (Influenza A virus [3]): Active
Activity (dengue virus type 2 [4]): Active
Time (Influenza A virus [5]): 9.5 days
survival at 750 mg/kg (dengue virus type 2 [6]): 94%
Activity (dengue virus type 2 [7]): Active
Activity (dengue virus type 2 [8]): Active
inhibition (Mus musculus [9]): Active
survival at 500 mg/kg (dengue virus type 2 [10]): 86%
survival at 750 mg/kg (dengue virus type 2 [11]): 100%
survival at 250 mg/kg (Influenza A virus [12]): 30%
survival at 750 mg/kg (Influenza A virus [13]): 100%
inhibition (Mus musculus [14]): Active
survival at 375 mg/kg (dengue virus type 2 [15]): 82%
Activity (Influenza A virus [16]): Active
Activity (dengue virus type 2 [17]): Active
Time (Influenza A virus [18]): >14 days
Time (Influenza A virus [19]): >14 days
half-life [20]: 300 min
survival at 375 mg/kg (dengue virus type 2 [21]): 100%
survival at 500 mg/kg (Influenza A virus [22]): 40%
inhibition (Mus musculus [23]): Active
Activity (dengue virus type 2 [24]): Active
Activity (dengue virus type 2 [25]): Active
inhibition (Cynomolgus monkey): Active
survival at 250 mg/kg (Influenza A virus [26]): 0%
survival at 750 mg/kg (Influenza A virus [27]): 30%
